Measurements as given in publication PMC4438233, “Antibacterial effects of Traditional Chinese Medicine monomers against Streptococcus pneumoniae via inhibiting pneumococcal histidine kinase (VicK)” (Frontiers in Microbiology, 2015).
Read-outs that look alike come from different tables or passages of the source. Marks after values point to notes of the source that are not given here.

Assays:
S. mitis = assay: MIC against S. mitis; format: cell-based; settings: Streptococcus mitis; S. mitis clinical isolate; 10^6 CFU/ml; read-out: MIC
Experimental: (§1) Minimum inhibitory concentration (MIC) assays for the antibacterial activities of the compounds were performed according to the standard […] method of the Clinical and Laboratory Standards Institute of America. MIC testing of drug-resistant S. pneumoniae, drug-resistant S. aureus, streptococci and antimicrobial combination was also performed using the same method. Briefly, the drugs were serially diluted 2-fold into eight wells with C+Y medium, yielding final concentrations ranging from […]. Then 10^6 CFU bacteria were added to each well. Inoculated medium containing 1% DMSO served as a bacterial growth control, whereas uninoculated medium served as a sterility control. The plates were incubated at 37°C for 12–16 h. […] The experiment was repeated three times.

[1] = test system: clinical S. pneumoniae 19F (CMCC31693); assay: Mouse colonization model, serotype 19F; format: in vivo, BALB/c mice; settings: for Mean log CFU at site of infection: 19F
Experimental: (§2) In colonization models, the mice were intranasally challenged by 20 μL of clinical drug-resistant strains (pneumococcal serotype 19F or 19A, 1.5 × 10^8 CFU). An hour later, the mice were intraperitoneally injected with 100 μL drugs (2 × MIC) alone or in combination with PEN (2 × MIC). These injections were continued thrice a day for 3 d. Nasal wash and lung tissues were obtained to analyze the bacteria load at 24, 48, and 72 h after drug infection. Then 100 μL aliquots of the samples diluted were plated on blood agar plates. The colonies were counted after incubation overnight at 37°C with 5% CO2.

[2] = test system: Penicillin-resistant S. pneumoniae strains; assay: Checkerboard test with penicillin against penicillin-resistant S. pneumoniae; format: cell-based, Streptococcus pneumoniae; settings: Streptococcus pneumoniae, agent alone, read-out: MIC, Alone
Experimental: as §1
(§3) The antimicrobial effects of different combinations of two antimicrobial agents were assayed using the checkerboard test (Bajaksouzian et al., [1997]). Each experiment was repeated thrice. The in vitro interaction between the five drugs with PEN was quantified by the fractional inhibitory concentration (FIC). The FIC index (FICI) was calculated using the following formula:
(§4) (2) FIC=FICA+FICB=[A]/MICA+[B]/MICB
(§5) where [A] and [B] are the concentrations of drugs A and B, respectively; MICA and FICA are the MIC and FIC of drug A for the organism, respectively; and MICB, and FICB are the MIC and FIC of drug B for the organism, respectively. The FIC index obtained was interpreted as follows: =0.5, synergy; FIC > 2.0, antagonism (Gupta and Kohli, [2003]).

S. pneumoniae NCTC7466 [3] = assay: Mouse sepsis model, survival time; format: in vivo, BALB/c mice; settings: i.p. infection 1 × 10^3 CFU; drug i.p. thrice a day for 3 d; untreated control 28.8 ± 1.25
Experimental: Female BALB/c mice (12–15 per group) aged 4–6 weeks were used to evaluate the antimicrobial effects of the compounds in vivo. In sepsis models, the mice were intraperitoneally infected with 100 μL S. pneumoniae NCTC7466 strain suspension (1 × 10^3 CFU). […] Two control groups were injected with 100 μL 1% DMSO (dissolved the drugs, negative control) or PEN (0.42 mg/kg/d, positive control) following the same injection route. The result was expressed as cumulative survival times following 7 d of observation.

pneumococcal strains = assay: MIC against clinical pneumococcal strains (penicillin susceptible, intermediate, resistant); format: cell-based, Streptococcus pneumoniae; settings: for MIC50 / MIC90: Streptococcus pneumoniae; for MIC50: read-out: MIC of pneumococcal strains, MIC50; for MIC90: read-out: MIC of pneumococcal strains, MIC90
Experimental: as §1

S. aureus = assay: Checkerboard test with penicillin against S. aureus; format: cell-based, Staphylococcus aureus; settings: for MIC: Staphylococcus aureus, agent alone, read-out: MIC, Alone
Experimental: as §1, §3, §4, §5

[4] = test system: Methicillin resistant S. aureus; assay: MIC against methicillin resistant S. aureus; format: cell-based; settings: Staphylococcus aureus; Methicillin resistant S. aureus (4 isolates); 10^6 CFU/ml; read-out: MIC
Experimental: as §1

S. pneumoniae = assay: Checkerboard test with erythromycin or tetracycline against S. pneumoniae; format: cell-based, Streptococcus pneumoniae
Experimental: The antimicrobial effects of different combinations of two antimicrobial agents were assayed using the checkerboard test (Bajaksouzian et al., [1997]). Each experiment was repeated thrice. […] The FIC index (FICI) was calculated using the following formula:
as §4, §5

[5] = test system: clinical S. pneumoniae 19A (CMCC31689); assay: Mouse colonization model, serotype 19A; format: in vivo, BALB/c mice; settings: for Mean log CFU at site of infection: 19A
Experimental: as §2

full-length VicK protein = target: T1, full-length VicK protein (Streptococcus pneumoniae, UniProt Q8DPL8); assay: Inhibition assay for ATPase activity of VicK (Kinase-Glo Luminescent Kinase Assay); format: biochemical; settings: IC50 (inhibition of VicK ATPase activity / autophosphorylation), 6 μg VicK, 5 μM ATP
T1 construct: 6 His; made in house
T1 sequence (Q8DPL8 whole entry): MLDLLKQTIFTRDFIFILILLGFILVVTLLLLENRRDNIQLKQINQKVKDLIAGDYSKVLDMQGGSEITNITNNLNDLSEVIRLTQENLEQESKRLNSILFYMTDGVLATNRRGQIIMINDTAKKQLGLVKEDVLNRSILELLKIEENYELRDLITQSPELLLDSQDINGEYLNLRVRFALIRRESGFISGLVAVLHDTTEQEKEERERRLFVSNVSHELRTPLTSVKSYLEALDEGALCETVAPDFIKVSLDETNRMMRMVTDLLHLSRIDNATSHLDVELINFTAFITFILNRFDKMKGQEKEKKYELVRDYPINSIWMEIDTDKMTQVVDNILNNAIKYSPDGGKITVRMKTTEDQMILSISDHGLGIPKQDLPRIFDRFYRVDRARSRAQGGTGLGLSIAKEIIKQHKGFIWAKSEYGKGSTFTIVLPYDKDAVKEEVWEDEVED
Experimental: The inhibitory activities of the Chinese medicine monomers for the ATPase activity of the full-length VicK protein were evaluated using the Kinase-Glo™Luminescent Kinase Assay (Promega, Madison, USA). Briefly, 6 μg VicK protein was pre-incubated with a series of dilution of compounds in the reaction buffer at 37°C for 30 min. 5 μM ATP was added and incubated for another 30 min. Kinase-Glo™Reagent was also added to detect the remaining ATP recorded from luminescence measurements (RLU). In parallel, the VicK protein with no addition of compounds was used as a control, and the mixture with compounds excluding the VicK protein served as another control. The rate of protein phosphorylation (Rp) inhibition by the compounds was calculated from Equation (1).
(1) Rp=1−RLU(compound+ATP+Reagent) −RLU(compound+ATP+vick+Reagent)/RLU(ATP +Reagent)−RLU(ATP+vick+Reagent)×100%
The half maximal inhibitory concentration (IC50), which is the concentration of inhibition of 50% VicK protein autophosphorylation, was determined by GraphPad Prism 5 (Qin et al., [2006]).

S. pyogenes = assay: MIC against S. pyogenes; format: cell-based; settings: Streptococcus pyogenes; S. pyogenes clinical isolate; 10^6 CFU/ml; read-out: MIC
Experimental: as §1

S. pneumoniae NCTC7466 [6] = assay: MIC against S. pneumoniae NCTC7466 (D39); format: cell-based; settings: Streptococcus pneumoniae, S. pneumoniae NCTC7466 (D39), read-out: MIC
Experimental: as §1

[7] = Penicillin intermediate (n = 12)
[8] = in combination with Erythromycin
[9] = in combination with Tetracycline

For CCCCCCCCCCCCOC(=O)c1cc(O)c(O)c(O)c1 [Compound 5, Dodecyl gallate], the MIC (S. mitis) was 338 µg/mL, the “Mean log CFU at site of infection” value ([1]; Lung, 24 h, control 2.82) was 3.9 (0.0001)^b log CFU and the “Mean log CFU at site of infection” value ([1]; Lung, 48 h, control 7.57) was 3 (0.006)^b log CFU. The “Mean log CFU at site of infection” value ([1]; Lung, 72 h, control 4.95) was 2.8 (<0.0001)^b log CFU, the “Mean log CFU at site of infection” value ([1]; NW (nasal wash), 24 h, i.p. three times a day for 3 days, control 6.72) was 2.16 log CFU and the “Mean log CFU at site of infection” value ([1]; NW, 48 h, control 6.27) was 5.55 log CFU. The “Mean log CFU at site of infection” value ([1]; NW, 72 h, control 7.09) was 5.82 (<0.0001)^b log CFU, the “reduction in 19F bacterial numbers” value ([1]; at 24 h) was “one-log reduction” and the MIC ([2]; strain 652336) was 84.4 µg/mL. For the same molecule, the MIC ([2]; strain 736007) was 337 µg/mL, the MIC ([2]; strain 8364981) was 168 µg/mL and the MIC ([2]; strain 12092624) was 84.4 µg/mL. For the same molecule, the “Mean survival of mice ± SEM” value (S. pneumoniae NCTC7466 [3]) was 60.2 ± 7.3 h, the “MIC of pneumococcal strains, Range” value (pneumococcal strains; [7]) was 42 to 168 µg/mL and the “MIC of pneumococcal strains, MIC50” value (pneumococcal strains; Penicillin resistant (n = 15)) was 42 µg/mL. For the same molecule, the “MIC of pneumococcal strains, Range” value (pneumococcal strains; Penicillin resistant (n = 15)) was 10.5 to 168.8 µg/mL, the “MIC of pneumococcal strains, Range” value (pneumococcal strains; Penicillin susceptible (n = 7)) was 21 to 168 µg/mL and the MIC50 (pneumococcal strains; [7]) was 84 µg/mL. For the same molecule, the MIC90 (pneumococcal strains; [7]) was 168 µg/mL, the MIC50 (pneumococcal strains; Penicillin resistant (n = 15)) was 42 µg/mL and the MIC90 (pneumococcal strains; Penicillin resistant (n = 15)) was 169 µg/mL. The MIC50 (pneumococcal strains; Penicillin susceptible (n = 7)) was 42 µg/mL, the MIC90 (pneumococcal strains; Penicillin susceptible (n = 7)) was 42 µg/mL and the MIC (S. aureus; ATCC29213, S. aureus ATCC29213) was 168 µg/mL. For the same molecule, the MIC (S. aureus; MRSA8506305) was 337 µg/mL, the MIC (S. aureus; MRSA8548991) was 84.4 µg/mL and the MIC (S. aureus; MRSA, MRSA 8569082) was 84.4 µg/mL. The “reduction of MIC in combination with PEN” value (S. aureus; four strains of MRSA) was 2 fold, the MIC [4] was 84.4 to 336 µg/mL and the FICI (S. pneumoniae; [8]) was 0.31. For the same molecule, the Outcome (S. pneumoniae; [8]) was “Synergy (=0.5, synergy)”, the FICI (S. pneumoniae; [9]) was 0.18 and the Outcome (S. pneumoniae; [9]) was “Synergy (=0.5, synergy)”. For the same molecule, the “Mean log CFU at site of infection” value ([5]; Lung, 24 h, control 4.85) was 1 log CFU, the “Mean log CFU at site of infection” value ([5]; Lung, 48 h, control 6.12) was 3 log CFU and the “Mean log CFU at site of infection” value ([5]; Lung, 72 h, control 6.29) was 2.82 log CFU. The “Mean log CFU at site of infection” value ([5]; NW (nasal wash), 24 h, i.p. three times a day for 3 days, control 7.29) was 5.91 (0.021)^b log CFU, the “Mean log CFU at site of infection” value ([5]; NW, 48 h, control 5.97) was 5.28 log CFU and the “Mean log CFU at site of infection” value ([5]; NW, 72 h, control 6.01) was 3.62 (0.033)^b log CFU. For the same molecule, the “reduction of 19A bacterial numbers” value ([5]; at 24 h) was “two-log reduction”, the IC50 (full-length VicK protein) was 9.1 µM and the IC50 (full-length VicK protein; value in parentheses) was 9.07 µM. For the same molecule, the MIC (S. pyogenes) was 42 µg/mL, the MIC (S. pneumoniae NCTC7466 [6]) was 21 µg/mL and the MIC (S. pneumoniae NCTC7466 [6]; value in parentheses) was 62 µM.
